The target in assay [1] is T1, full-length human BTK-WT (Homo sapiens, UniProt Q06187).
T1 construct: The full-length human BTK-WT (ABCAM205800); purchased Abcam ABCAM205800; host or cells: Baculovirus infected Sf9 cells
Kind of assay: BTK-WT kinase activity assay (ADP-Glo). Type of assay: biochemical. The conditions noted are these: BTK kinase inhibition, 30 min preincubation, 90 min reaction. The protocol:
(§1) These assays are to determine the degree of inhibition of the BTK-WT and BTK-C481S mutant kinase activity by measuring the amount of ADP produced during the enzymatic reactions. […] Compounds, BTK enzymes, ATP and substrate were all prepared in ix kinase assay buffer by diluting 5× stock of kinase assay buffer III (Signal Chem K03-09), in H2O, and adding DTT (Thermo ScientificA39255) for a final concentration of 50 μM. […] Then the plate was kept shaking for 30 min at room temperature to allow the binding of the compounds to the proteins. After the preincubation, ATP and the substrate, a total of 5 μL was added into each well. The plate was then spun down at 1000 rpm for 2 minutes and kept shaking for 90 min at room temperature. ADP detection was performed following the guidance from the ADP-Glo Kinase Assay kits (Promega V9101). Briefly, 10 μL of ADP-Glo reagent was added into each well. The plate was then spun down at 1000 rpm for 2 minutes and kept shaking at room temperature for 60 min. Twenty μL of the kinase detection solution was added into each well. The plate was incubated at room temperature for 30 min in dark. The plates were read for luminescence signals in Tecan M1000 directly following the 30 min incubation. Relative inhibition of BTK kinase activities were analyzed by calculating the luminescence signal change:
(§2) Data was input into GraphPad Prism, and the IC50 values were calculated using function “log(inhibitor) vs. response—Variable slope (four parameters)”.
For orientation: ADP-Glo first removes unused ATP, then detects ADP through luciferase.

Assay [2] concerns the target T2, BTK-C481S (Homo sapiens, UniProt Q06187, C481S).
T2 construct: purchased Abcam ABCAM 204166; host or cells: Baculovirus infected Sf9 cells
Kind of assay: BTK-C481S kinase activity assay (ADP-Glo). Type of assay: biochemical. Conditions: BTK kinase inhibition, 30 min preincubation, 90 min reaction. The protocol: as §1, §2

Assay [3] concerns the target T3, human BTK-WT (Homo sapiens, UniProt Q06187).
T3 construct: host or cells: HEK293 (ATCC CRL1573), lentiviral transduction, puromycin selected
Kind of assay: BTK-Y223 autophosphorylation in HEK293 cells stably expressing BTK-WT (HTRF). Type of assay: cell-based. Conditions: 2 hours treatment. The procedure: (§3) HEK293 cells (purchased from ATCC, CRL1573) stably expressing wild type BTK or mutant C481S BTK were generated by lentiviral transduction of constructs containing human BTK-WT or BTK-C481S mutant (Genecopoeia, Lv201 vector). Cells expressing BTK proteins were selected with puromycin treatment (1 μM). The protein expression was confirmed by western blotting of BTK and BTK-Y223 autophosphorylation. The cells were cultured in MEM medium (Sigma M2279), 10% heat-Inactivated FBS (Gibco 10100), penicillin streptomycin (Thermal Fisher 15140122), and puromycin (InvivoGen QLL-41-03). The BTK-Y223 phosphorylation was quantified using BTK phospho-Y223 kit (Cisbio 63ADK017PEG). HEK293/BTK stable cells were seeded in a 96-well plate at a density of 10 thousand cells/well in a total volume of 100 μL of media. Cells were incubated overnight in a humidified, 5% CO2 cell culture incubator at 37° C. The next day, the cells were treated with diluted compounds in a humidified, 5% CO2 cell culture incubator at 37° C. for 2 hours. The medium was removed from each well, and 50 μL of 1× lysis buffer from the assay kit was added into each well. The cells were incubated for 30 min at room temperature with shaking. Then 16 μL of lysate was transferred to a PROXIPLATE 384-plate (PerkinElmer 6008230), followed by addition of 4 μL of HTRF pre-mixed antibodies. After incubation overnight at room temperature, fluorescence signals in the plates were read on PHERAstar FSX instrument, using HTRF settings ([…]).
(§4) The relative cellular pBTK inhibition was calculated by HTRF signal change: The average of positive control well reading, and average of negative control reading were used as controls to calculate inhibition percentage.
(§5) The data was input into GraphPad Prism, using function “log(inhibitor) vs. response—Variable slope (four parameters)” to get IC50 values.
Background: TR-FRET usually uses a lanthanide donor and a delayed reading to cut background.

In assay [4] the target is T4, BTK-C481S mutant (Homo sapiens, UniProt Q06187, C481S).
T4 construct: host or cells: HEK293 (ATCC CRL1573), lentiviral transduction, puromycin selected
T4 sequence (Q06187 whole entry C481S): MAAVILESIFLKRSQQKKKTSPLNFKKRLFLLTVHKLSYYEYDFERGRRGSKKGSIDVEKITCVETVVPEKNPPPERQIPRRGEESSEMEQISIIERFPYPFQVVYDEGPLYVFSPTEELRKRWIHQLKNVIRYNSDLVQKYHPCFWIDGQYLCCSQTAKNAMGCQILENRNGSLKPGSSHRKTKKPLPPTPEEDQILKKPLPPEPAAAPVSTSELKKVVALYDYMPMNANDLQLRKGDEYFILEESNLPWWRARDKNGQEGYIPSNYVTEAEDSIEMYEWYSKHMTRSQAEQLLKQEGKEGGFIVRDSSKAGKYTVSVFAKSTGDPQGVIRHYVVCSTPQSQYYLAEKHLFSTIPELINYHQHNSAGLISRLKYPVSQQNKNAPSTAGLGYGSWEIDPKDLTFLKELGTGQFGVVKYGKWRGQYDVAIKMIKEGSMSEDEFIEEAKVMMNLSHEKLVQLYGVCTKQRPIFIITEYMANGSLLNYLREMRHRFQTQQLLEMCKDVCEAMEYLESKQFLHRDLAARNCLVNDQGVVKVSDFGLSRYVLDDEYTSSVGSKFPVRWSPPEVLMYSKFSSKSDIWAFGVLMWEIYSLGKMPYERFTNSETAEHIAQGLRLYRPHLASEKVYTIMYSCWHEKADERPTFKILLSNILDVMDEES
Nature of the assay: BTK-Y223 autophosphorylation in HEK293 cells stably expressing BTK-C481S (HTRF). Type of assay: cell-based. The conditions noted are these: 2 hours treatment. The protocol:
as §3, §4, §5

Assay [5] concerns human TMD-8 diffuse large B-cell lymphoma cells. Kind of assay: BTK-dependent cell proliferation in human TMD-8 cells (CellTiter-Glo). Conditions: TMD8, 72 h, TMD-8 DLBCL cells, 3 days, absolute IC50. The format is cell-based. The procedure:
The human TMD-8 DLBCL cancer cells were cultured in RPMI media with high glucose and glutamine (Genesee 25-506), 20% heat-inactivated FBS (Gibco 10100), penicillin streptomycin (Thermal Fisher 15140122) and 1 mM sodium pyruvate (Thermal Fisher 11360070). TMD-8 cells were centrifuged at 300 g for 5 minutes and the cells were resuspended into fresh cell culture media. The cells were counted and made to a cell stock of 1.3 million/mL. Then 75 μL of cells were seeded into each well of a white 96-well cell culture plate (Corning 353286). A serial dilution of compounds was made and 25 μL was added to each well. The plates were incubated for 3 days in a humidified, 5% CO2 atmosphere at 37° C. Inhibition of cell growth by the compounds was determined by measuring the ATP level generated by the cells with the Cell Titer-Glo Luminescent Cell Viability Kit (Promega G7572). Assay procedures were conducted according to the protocols provided by Promega. In brief, the treated cell-culture plate and its contents were equilibrated at room temperature for approximately 30 minutes. 100 μL of CellTiter-Glo® Reagent was added into each cell-culture well, and contents were mixed for 2 minutes on an orbital shaker to induce cell lysis. The plate was incubated at room temperature for 10 minutes to stabilize luminescent signal. The resulting luminescence signal was immediately read using a TECAN plate reader. The relative cell grow inhibition was calculated by Cell Titer-Glo luminescent signal change.
The average readings of media-only wells and the readings of positive control wells (no compound treatment) were used to calculate response percentage.
The data was input into GraphPad Prism, and the curve fitting was made using function “log(inhibitor) vs. response—Variable slope (four parameters)”. The interpolation function was used to calculate absolute IC50 values.
A general note: Cellular ATP, detected with luciferase, serves as a proxy for viable cell number.

T3 sequence (Q06187 whole entry): as the sequence (Q06187 whole entry C481S) above, with S481C counted along it
T1 sequence (Q06187 whole entry): as the sequence (Q06187 whole entry C481S) above, with S481C counted along it
T2 sequence (Q06187 whole entry C481S): as the sequence (Q06187 whole entry C481S) above

One may read the IC50 as the concentration that gives 50% inhibition. Low readings indicate greater potency, high ones weaker potency. `COc1ccc(F)cc1C(=O)NCc1ccc(-n2nc(C(C)C)c(N)c2C(N)=O)cc1` [Example A1, 4-amino-1-(4-((5-fluoro-2-methoxybenzamido)methyl)phenyl)-3-isopropyl-1H-pyrazole-5-carboxamide]: the half-inhibitory concentration (IC50) in assay [1] amounted to 5.6 nM; in assay [2], 3.6 nM; in assay [3] it was 55 nM; in assay [4], 115 nM; in assay [5] it was 47 nM.

For `CCOc1cc(CNC(=O)c2cc(F)ccc2OC)ccc1-n1nc(C(C)C)c(N)c1C(N)=O` [Example A5, 4-amino-1-(2-ethoxy-4-((5-fluoro-2-methoxybenzamido)methyl)phenyl)-3-isopropyl-1H-pyrazole-5-carboxamide], the values for the IC50 in assay [1], in assay [2] and in assay [5] were 11 nM, 11 nM and 240 nM, respectively.

In the case of `COc1ccccc1C(=O)NCc1ccc(-n2nc(C(C)C)c(N)c2C(N)=O)cc1` [Example A9, 4-amino-3-isopropyl-1-(4-((2-methoxybenzamido)methyl)phenyl)-1H-pyrazole-5-carboxamide], the IC50 in assay [1] worked out at 14 nM; in assay [2], 14 nM; in assay [3], 84 nM; in assay [4], 170 nM; in assay [5] it was 140 nM.

As for `CC(C)c1nn(-c2ccc(CNC(=O)c3cccc4c3OCC4)cc2)c(C(N)=O)c1N` [Example A10, 4-amino-1-(4-((2,3-dihydrobenzofuran-7-carboxamido)methyl)phenyl)-3-isopropyl-1H-pyrazole-5-carboxamide], the IC50 was found to be 62 nM in assay [1] and 60 nM in assay [2].

As to `COc1ccc(F)cc1C(=O)NCc1ccc(-n2nc(C(C)C)c(N)c2C(N)=O)c(F)c1` [Example A11, 4-amino-1-(2-fluoro-4-((5-fluoro-2-methoxybenzamido)methyl)phenyl)-3-isopropyl-1H-pyrazole-5-carboxamide], the IC50 in assay [1] turned out to be 35 nM; in assay [2], 27 nM.

Consider `COc1ccc(F)cc1C(=O)NCc1ccc(-n2nc(C3CCOCC3)c(N)c2C(N)=O)cc1` [Example A12, 4-amino-1-(4-((5-fluoro-2-methoxybenzamido)methyl)phenyl)-3-(tetrahydro-2H-pyran-4-yl)-1H-pyrazole-5-carboxamide], for which the IC50 in assay [1] turned out to be 26 nM; in assay [2] it was 5.8 nM; in assay [3], 130 nM; in assay [4], 180 nM; in assay [5], 160 nM.

With `COc1ccc(F)cc1C(=O)NCc1ccc(-n2nc(C3CCCOC3)c(N)c2C(N)=O)cc1` (stereo not drawn) [Example A13, 4-amino-1-(4-((5-fluoro-2-methoxybenzamido)methyl)phenyl)-3-(tetrahydro-2H-pyran-3-yl)-1H-pyrazole-5-carboxamide], the half-inhibitory concentration (IC50) in assay [1] came to 4.4 nM; in assay [2], 2.7 nM; in assay [3] it was 57 nM; in assay [4], 120 nM; in assay [5], 95 nM.

`COc1ccc(F)cc1C(=O)NCc1ccc(-n2nc(-c3cccs3)c(N)c2C(N)=O)cc1` [Example A14, 4-amino-1-(4-((5-fluoro-2-methoxybenzamido)methyl)phenyl)-3-(thiophen-2-yl)-1H-pyrazole-5-carboxamide]: the 50% inhibitory concentration (IC50) came to 7.9 nM in assay [1]; 3.1 nM in assay [2]; 81 nM in assay [3]; 210 nM in assay [4]; 95 nM in assay [5].

For the compound `COc1ccc(F)cc1C(=O)NCc1ccc(-n2nc(C3CCCC3)c(N)c2C(N)=O)cc1` [Example A15, 4-amino-3-cyclopentyl-1-(4-((5-fluoro-2-methoxybenzamido)methyl)phenyl)-1H-pyrazole-5-carboxamide], the IC50 was determined as 3.7 nM in assay [1]; 4.2 nM in assay [2]; 27 nM in assay [3]; 84 nM in assay [4]; 29 nM in assay [5].

Take `COc1ccc(F)cc1C(=O)NCc1ccc(-n2nc(C3CCOC3)c(N)c2C(N)=O)cc1` (stereo not drawn) [Example A16, 4-amino-1-(4-((5-fluoro-2-methoxybenzamido)methyl)phenyl)-3-(tetrahydrofuran-3-yl)-1H-pyrazole-5-carboxamide]: the IC50 stood at 15 nM in assay [1]; 11 nM in assay [2]; 120 nM in assay [3]; 230 nM in assay [4]; 120 nM in assay [5].

`COc1ccc(F)cc1C(=O)NCc1ccc(-n2nc(N3CCOCC3)c(N)c2C(N)=O)cc1` [Example A17, 4-amino-1-(4-((5-fluoro-2-methoxybenzamido)methyl)phenyl)-3-morpholino-1H-pyrazole-5-carboxamide]: the figures for the concentration for half-maximal inhibition (IC50) in assay [1] and in assay [2] were 87 nM and 93 nM, respectively.

Take `CCOc1cc(CNC(=O)c2cc(F)ccc2OC)cc(F)c1-n1nc(C(C)C)c(N)c1C(N)=O` [Example A19, 4-amino-1-(2-ethoxy-6-fluoro-4-((5-fluoro-2-methoxybenzamido)methyl)phenyl)-3-isopropyl-1H-pyrazole-5-carboxamide]: the IC50 turned out to be 63 nM in assay [1] and 68 nM in assay [2].

`COc1ccc(F)cc1C(=O)NCc1ccc(-n2nc(C3CCC(F)(F)CC3)c(N)c2C(N)=O)cc1` [Example A22, 4-amino-3-(4,4-difluorocyclohexyl)-1-(4-((5-fluoro-2-methoxybenzamido)methyl)phenyl)-1H-pyrazole-5-carboxamide]: the IC50 in assay [1] was found to be 8.1 nM; in assay [2], 8 nM; in assay [3], 74 nM; in assay [4] it was 120 nM; in assay [5], 110 nM.

Source of the values: patent US20220169645A1, “COMPOUNDS AS BRUTON TYROSINE KINASE INHIBITORS, PREPARATION METHODS AND MEDICAL APPLICATIONS THEREOF” (Eternity Bioscience Inc., priority 2020, published 2022).
